Test system: lung cancer cell line (A549)
Experiment: tumor cell proliferation inhibition (CTG), lung cancer cell line
Assay type: cell-based
Conditions: Homo sapiens, 72 hours

| SMILES | IC50 [µM] |
| --- | --- |
| COc1cc2nccc(Oc3ccc(NC(=O)NC4CC4)c(Cl)c3)c2cc1C(N)=O [Lenvatinib, lenvatinib, reference compound] | > 5 |
| CNC(=O)c1cc(Oc2ccc(NC(=O)Nc3ccc(Cl)c(C(F)(F)F)c3)c(F)c2)ccn1 [Regorafenib, regorafenib, reference compound] | > 5 |
| NC(=O)c1cc2c(Oc3c(F)cc(NC(=O)NC4CC4)c(Cl)c3F)ccnc2cc1OCCO [IIIb-60] | < 2.5 |
| NC(=O)c1cc2c(Oc3c(F)cc(NC(=O)NC4CC4)c(Cl)c3F)ccnc2cc1OCCF [IIIb-55] | < 2.5 |

Target: FGFR2 (Homo sapiens (Human), UniProt P21802)
Sequence (P21802 22-821): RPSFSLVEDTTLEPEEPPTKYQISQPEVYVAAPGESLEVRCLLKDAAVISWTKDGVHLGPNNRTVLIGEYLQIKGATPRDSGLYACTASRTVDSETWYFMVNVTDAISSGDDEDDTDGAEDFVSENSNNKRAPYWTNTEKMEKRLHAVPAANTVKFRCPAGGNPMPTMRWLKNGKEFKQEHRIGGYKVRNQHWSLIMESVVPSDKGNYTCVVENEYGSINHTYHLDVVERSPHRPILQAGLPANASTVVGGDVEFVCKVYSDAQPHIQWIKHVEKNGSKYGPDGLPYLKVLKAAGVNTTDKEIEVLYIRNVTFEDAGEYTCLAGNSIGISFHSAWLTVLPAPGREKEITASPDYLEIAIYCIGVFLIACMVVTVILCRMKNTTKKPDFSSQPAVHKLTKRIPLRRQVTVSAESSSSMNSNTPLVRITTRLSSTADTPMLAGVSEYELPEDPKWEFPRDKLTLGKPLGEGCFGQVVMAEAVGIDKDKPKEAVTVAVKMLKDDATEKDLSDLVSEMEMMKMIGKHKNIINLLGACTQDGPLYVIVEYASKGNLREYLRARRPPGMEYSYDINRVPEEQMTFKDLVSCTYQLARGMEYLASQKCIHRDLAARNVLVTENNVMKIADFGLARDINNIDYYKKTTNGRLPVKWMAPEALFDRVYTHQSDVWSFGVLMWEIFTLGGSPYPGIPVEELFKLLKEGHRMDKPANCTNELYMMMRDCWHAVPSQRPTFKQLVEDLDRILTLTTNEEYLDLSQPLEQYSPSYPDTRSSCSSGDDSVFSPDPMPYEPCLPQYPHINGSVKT
Experiment: kinase inhibition, Mobility-Shift Assay
Assay type: biochemical
Conditions: 1.9 μM ATP

| SMILES | IC50 [µM] |
| --- | --- |
| COc1cc2nccc(Oc3ccc(NC(=O)NC4CC4)c(Cl)c3)c2cc1C(N)=O [Lenvatinib, lenvatinib, reference compound] | 0.05 to 0.1 |
| NC(=O)c1cc2c(Oc3c(F)cc(NC(=O)NC4CC4)c(Cl)c3F)ccnc2cc1OCCO [IIIb-60] | < 0.05 |
| NC(=O)c1cc2c(Oc3c(F)cc(NC(=O)NC4CC4)c(Cl)c3F)ccnc2cc1OCCF [IIIb-55] | < 0.05 |

Target: VEGFR1 (FLT1) (Homo sapiens (Human), UniProt P17948)
Sequence (P17948 27-1338): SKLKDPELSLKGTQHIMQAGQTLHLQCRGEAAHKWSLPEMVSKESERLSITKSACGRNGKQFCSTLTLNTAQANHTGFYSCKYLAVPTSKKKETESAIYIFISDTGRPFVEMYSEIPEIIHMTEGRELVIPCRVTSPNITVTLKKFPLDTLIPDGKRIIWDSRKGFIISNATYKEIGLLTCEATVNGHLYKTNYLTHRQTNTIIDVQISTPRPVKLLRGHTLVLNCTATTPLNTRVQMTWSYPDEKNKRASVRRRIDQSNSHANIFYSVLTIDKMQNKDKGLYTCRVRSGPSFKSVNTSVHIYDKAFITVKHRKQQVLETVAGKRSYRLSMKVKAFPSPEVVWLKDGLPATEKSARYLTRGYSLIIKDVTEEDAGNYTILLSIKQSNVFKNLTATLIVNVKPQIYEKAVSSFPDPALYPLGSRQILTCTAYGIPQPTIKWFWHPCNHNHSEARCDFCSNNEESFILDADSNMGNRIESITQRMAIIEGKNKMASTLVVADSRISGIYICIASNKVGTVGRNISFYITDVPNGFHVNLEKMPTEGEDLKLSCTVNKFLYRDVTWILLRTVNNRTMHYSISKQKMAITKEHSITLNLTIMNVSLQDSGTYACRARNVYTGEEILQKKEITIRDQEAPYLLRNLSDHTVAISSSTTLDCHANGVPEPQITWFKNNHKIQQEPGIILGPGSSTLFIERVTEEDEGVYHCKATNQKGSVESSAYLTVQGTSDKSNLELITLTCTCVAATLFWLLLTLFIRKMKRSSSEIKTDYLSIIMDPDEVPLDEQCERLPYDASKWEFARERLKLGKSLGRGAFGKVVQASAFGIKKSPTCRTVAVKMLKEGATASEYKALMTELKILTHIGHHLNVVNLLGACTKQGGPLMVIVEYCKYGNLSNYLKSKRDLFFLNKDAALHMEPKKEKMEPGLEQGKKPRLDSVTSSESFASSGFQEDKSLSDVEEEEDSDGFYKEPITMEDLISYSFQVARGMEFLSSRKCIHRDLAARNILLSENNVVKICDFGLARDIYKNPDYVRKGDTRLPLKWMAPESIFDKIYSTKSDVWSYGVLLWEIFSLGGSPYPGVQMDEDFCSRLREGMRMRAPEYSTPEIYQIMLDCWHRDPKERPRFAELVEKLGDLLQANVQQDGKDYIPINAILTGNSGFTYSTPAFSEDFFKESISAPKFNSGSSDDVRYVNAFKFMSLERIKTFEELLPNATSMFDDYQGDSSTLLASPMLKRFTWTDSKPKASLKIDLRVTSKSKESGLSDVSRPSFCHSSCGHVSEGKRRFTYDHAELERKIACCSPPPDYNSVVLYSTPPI
Experiment: kinase inhibition, Mobility-Shift Assay
Assay type: biochemical
Conditions: 278 μM ATP

| SMILES | IC50 [µM] |
| --- | --- |
| COc1cc2nccc(Oc3ccc(NC(=O)NC4CC4)c(Cl)c3)c2cc1C(N)=O [Lenvatinib, lenvatinib, reference compound] | 0.005 to 0.01 |
| NC(=O)c1cc2c(Oc3c(F)cc(NC(=O)NC4CC4)c(Cl)c3F)ccnc2cc1OCCO [IIIb-60] | < 0.005 |
| NC(=O)c1cc2c(Oc3c(F)cc(NC(=O)NC4CC4)c(Cl)c3F)ccnc2cc1OCCF [IIIb-55] | < 0.005 |

Test system: cervical cancer cell lines (Hela)
Experiment: tumor cell proliferation inhibition (CTG), cervical cancer cell line
Assay type: cell-based
Conditions: Homo sapiens, 72 hours

| SMILES | IC50 [µM] |
| --- | --- |
| COc1cc2nccc(Oc3ccc(NC(=O)NC4CC4)c(Cl)c3)c2cc1C(N)=O [Lenvatinib, lenvatinib, reference compound] | > 10 |
| CNC(=O)c1cc(Oc2ccc(NC(=O)Nc3ccc(Cl)c(C(F)(F)F)c3)c(F)c2)ccn1 [Regorafenib, regorafenib, reference compound] | > 10 |
| NC(=O)c1cc2c(Oc3c(F)cc(NC(=O)NC4CC4)c(Cl)c3F)ccnc2cc1OCCO [IIIb-60] | < 5 |
| NC(=O)c1cc2c(Oc3c(F)cc(NC(=O)NC4CC4)c(Cl)c3F)ccnc2cc1OCCF [IIIb-55] | < 5 |

Test system: gastric cancer cell line (SNU16)
Experiment: tumor cell proliferation inhibition (CTG), gastric cancer cell line
Assay type: cell-based
Conditions: Homo sapiens, SNU-16, 72 hours, read-out: SUN16 IC50

| SMILES | IC50 [µM] |
| --- | --- |
| COc1cc2nccc(Oc3ccc(NC(=O)NC4CC4)c(Cl)c3)c2cc1C(N)=O [Lenvatinib, lenvatinib, reference compound] | 5 to 10 |
| CNC(=O)c1cc(Oc2ccc(NC(=O)Nc3ccc(Cl)c(C(F)(F)F)c3)c(F)c2)ccn1 [Regorafenib, regorafenib, reference compound] | 5 to 10 |
| NC(=O)c1cc2c(Oc3c(F)cc(NC(=O)NC4CC4)c(Cl)c3F)ccnc2cc1OCCO [IIIb-60] | < 5 |
| NC(=O)c1cc2c(Oc3c(F)cc(NC(=O)NC4CC4)c(Cl)c3F)ccnc2cc1OCCF [IIIb-55] | < 5 |

Target: VEGFR2 (KDR) (Homo sapiens (Human), UniProt P35968)
Experiment: kinase inhibition, Mobility-Shift Assay
Assay type: biochemical
Conditions: VEGFR2, 92 μM ATP

| SMILES | IC50 [µM] |
| --- | --- |
| NC(=O)c1cc2c(Oc3c(F)cc(NC(=O)NC4CC4)c(Cl)c3F)ccnc2cc1OCCO [IIIb-60] | < 0.005 |
| NC(=O)c1cc2c(Oc3c(F)cc(NC(=O)NC4CC4)c(Cl)c3F)ccnc2cc1OCCF [IIIb-55] | < 0.005 |

Test system: prostatic cancer (PC-3)
Experiment: tumor cell proliferation inhibition (CTG), PC-3
Assay type: cell-based
Conditions: 72 hours

| SMILES | IC50 [µM] |
| --- | --- |
| COc1cc2nccc(Oc3ccc(NC(=O)NC4CC4)c(Cl)c3)c2cc1C(N)=O [Lenvatinib, lenvatinib, reference compound] | > 10 |
| CNC(=O)c1cc(Oc2ccc(NC(=O)Nc3ccc(Cl)c(C(F)(F)F)c3)c(F)c2)ccn1 [Regorafenib, regorafenib, reference compound] | > 10 |
| NC(=O)c1cc2c(Oc3c(F)cc(NC(=O)NC4CC4)c(Cl)c3F)ccnc2cc1OCCO [IIIb-60] | 5 to 10 |
| NC(=O)c1cc2c(Oc3c(F)cc(NC(=O)NC4CC4)c(Cl)c3F)ccnc2cc1OCCF [IIIb-55] | 5 to 10 |

Test system: not listed separately
Experiment: MTD toxicity test in rats
Assay type: in vivo
Conditions: rat, in vivo, 150 mg/kg

| SMILES | MTD toxicity test, clinical outcome |
| --- | --- |
| NC(=O)c1cc2c(Oc3c(F)cc(NC(=O)NC4CC4)c(Cl)c3F)ccnc2cc1OCCO [IIIb-60] | no abnormalities such as death |
| NC(=O)c1cc2c(Oc3c(F)cc(NC(=O)NC4CC4)c(Cl)c3F)ccnc2cc1OCCF [IIIb-55] | no abnormalities such as death |

Same assay, conditions: rats, 150 mg/kg, QD, 14 days; heart, liver, lungs, kidneys, stomach, intestines and other organs

| SMILES | autopsy results of organs |
| --- | --- |
| NC(=O)c1cc2c(Oc3c(F)cc(NC(=O)NC4CC4)c(Cl)c3F)ccnc2cc1OCCO [IIIb-60] | did not reveal any abnormal changes |
| NC(=O)c1cc2c(Oc3c(F)cc(NC(=O)NC4CC4)c(Cl)c3F)ccnc2cc1OCCF [IIIb-55] | did not reveal any abnormal changes |

Target: hERG potassium channels (Homo sapiens (Human), UniProt Q12809)
Sequence (Q12809 whole entry): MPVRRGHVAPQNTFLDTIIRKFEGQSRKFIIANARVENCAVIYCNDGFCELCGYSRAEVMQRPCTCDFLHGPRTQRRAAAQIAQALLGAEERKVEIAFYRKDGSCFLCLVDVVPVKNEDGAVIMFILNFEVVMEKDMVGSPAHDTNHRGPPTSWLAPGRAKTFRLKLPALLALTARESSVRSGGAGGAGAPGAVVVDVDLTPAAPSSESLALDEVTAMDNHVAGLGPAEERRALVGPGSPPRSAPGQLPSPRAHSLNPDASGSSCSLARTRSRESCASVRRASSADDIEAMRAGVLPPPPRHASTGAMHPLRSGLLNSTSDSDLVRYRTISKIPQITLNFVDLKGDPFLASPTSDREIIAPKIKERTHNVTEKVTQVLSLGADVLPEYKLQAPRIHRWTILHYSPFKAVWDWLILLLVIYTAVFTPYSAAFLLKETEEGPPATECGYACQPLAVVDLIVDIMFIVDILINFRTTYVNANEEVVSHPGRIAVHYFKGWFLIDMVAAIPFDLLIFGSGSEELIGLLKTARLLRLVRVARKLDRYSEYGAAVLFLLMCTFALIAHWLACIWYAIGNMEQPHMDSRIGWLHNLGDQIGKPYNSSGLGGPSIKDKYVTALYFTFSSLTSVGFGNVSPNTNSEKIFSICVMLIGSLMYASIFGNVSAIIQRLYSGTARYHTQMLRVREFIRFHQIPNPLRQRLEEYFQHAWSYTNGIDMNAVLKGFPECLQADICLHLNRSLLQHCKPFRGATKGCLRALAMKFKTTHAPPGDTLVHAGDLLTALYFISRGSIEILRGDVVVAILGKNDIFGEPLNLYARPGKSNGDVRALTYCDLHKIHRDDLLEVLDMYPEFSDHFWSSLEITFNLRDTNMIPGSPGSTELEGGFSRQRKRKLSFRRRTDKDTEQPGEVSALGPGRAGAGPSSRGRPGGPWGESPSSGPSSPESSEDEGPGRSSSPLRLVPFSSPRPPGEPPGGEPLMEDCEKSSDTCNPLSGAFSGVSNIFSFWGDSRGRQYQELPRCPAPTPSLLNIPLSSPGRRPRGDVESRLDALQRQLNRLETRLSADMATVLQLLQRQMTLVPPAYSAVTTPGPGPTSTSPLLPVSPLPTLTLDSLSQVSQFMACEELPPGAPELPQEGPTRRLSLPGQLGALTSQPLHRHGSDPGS
Experiment: in vitro inhibitory effect of hERG, whole-cell patch clamp
Assay type: cell-based
Conditions: whole-cell recording, room temperature

| SMILES | IC50 [µM] |
| --- | --- |
| CNC(=O)c1cc(Oc2ccc(NC(=O)Nc3ccc(Cl)c(C(F)(F)F)c3)c(F)c2)ccn1 [Regorafenib, regorafenib, reference compound] | 27 |
| NC(=O)c1cc2c(Oc3c(F)cc(NC(=O)NC4CC4)c(Cl)c3F)ccnc2cc1OCCO [IIIb-60] | > 30 |
| NC(=O)c1cc2c(Oc3c(F)cc(NC(=O)NC4CC4)c(Cl)c3F)ccnc2cc1OCCF [IIIb-55] | > 30 |

Test system: kidney cancer cell line (Caki-1)
Experiment: tumor cell proliferation inhibition (CTG), kidney cancer cell line
Assay type: cell-based
Conditions: Homo sapiens, 72 hours, read-out: Caki-1 (renal cancer) IC50

| SMILES | IC50 [µM] |
| --- | --- |
| COc1cc2nccc(Oc3ccc(NC(=O)NC4CC4)c(Cl)c3)c2cc1C(N)=O [Lenvatinib, lenvatinib, reference compound] | > 5 |
| CNC(=O)c1cc(Oc2ccc(NC(=O)Nc3ccc(Cl)c(C(F)(F)F)c3)c(F)c2)ccn1 [Regorafenib, regorafenib, reference compound] | > 5 |
| NC(=O)c1cc2c(Oc3c(F)cc(NC(=O)NC4CC4)c(Cl)c3F)ccnc2cc1OCCO [IIIb-60] | < 2.5 |
| NC(=O)c1cc2c(Oc3c(F)cc(NC(=O)NC4CC4)c(Cl)c3F)ccnc2cc1OCCF [IIIb-55] | < 2.5 |

Test system: hepatocellular carcinoma cell line (Hep3B 2.1-7)
Experiment: tumor cell proliferation inhibition (CTG), hepatocellular carcinoma cell line
Assay type: cell-based
Conditions: Homo sapiens, 72 hours

| SMILES | IC50 [µM] |
| --- | --- |
| COc1cc2nccc(Oc3ccc(NC(=O)NC4CC4)c(Cl)c3)c2cc1C(N)=O [Lenvatinib, lenvatinib, reference compound] | > 5 |
| CNC(=O)c1cc(Oc2ccc(NC(=O)Nc3ccc(Cl)c(C(F)(F)F)c3)c(F)c2)ccn1 [Regorafenib, regorafenib, reference compound] | > 5 |
| NC(=O)c1cc2c(Oc3c(F)cc(NC(=O)NC4CC4)c(Cl)c3F)ccnc2cc1OCCO [IIIb-60] | < 2.5 |
| NC(=O)c1cc2c(Oc3c(F)cc(NC(=O)NC4CC4)c(Cl)c3F)ccnc2cc1OCCF [IIIb-55] | < 2.5 |

Test system: leukemia cell line (K562)
Experiment: tumor cell proliferation inhibition (CTG), leukemia cell line
Assay type: cell-based
Conditions: Homo sapiens, 72 hours

| SMILES | IC50 [µM] |
| --- | --- |
| COc1cc2nccc(Oc3ccc(NC(=O)NC4CC4)c(Cl)c3)c2cc1C(N)=O [Lenvatinib, lenvatinib, reference compound] | 5 to 10 |
| CNC(=O)c1cc(Oc2ccc(NC(=O)Nc3ccc(Cl)c(C(F)(F)F)c3)c(F)c2)ccn1 [Regorafenib, regorafenib, reference compound] | > 10 |
| NC(=O)c1cc2c(Oc3c(F)cc(NC(=O)NC4CC4)c(Cl)c3F)ccnc2cc1OCCO [IIIb-60] | < 5 |
| NC(=O)c1cc2c(Oc3c(F)cc(NC(=O)NC4CC4)c(Cl)c3F)ccnc2cc1OCCF [IIIb-55] | < 5 |

Test system: pancreatic cancer cell line (BXPC3)
Experiment: tumor cell proliferation inhibition (CTG), pancreatic cancer cell line
Assay type: cell-based
Conditions: Homo sapiens, BXPC-3, 72 hours

| SMILES | IC50 [µM] |
| --- | --- |
| COc1cc2nccc(Oc3ccc(NC(=O)NC4CC4)c(Cl)c3)c2cc1C(N)=O [Lenvatinib, lenvatinib, reference compound] | > 10 |
| CNC(=O)c1cc(Oc2ccc(NC(=O)Nc3ccc(Cl)c(C(F)(F)F)c3)c(F)c2)ccn1 [Regorafenib, regorafenib, reference compound] | > 10 |
| NC(=O)c1cc2c(Oc3c(F)cc(NC(=O)NC4CC4)c(Cl)c3F)ccnc2cc1OCCO [IIIb-60] | < 5 |
| NC(=O)c1cc2c(Oc3c(F)cc(NC(=O)NC4CC4)c(Cl)c3F)ccnc2cc1OCCF [IIIb-55] | < 5 |

Test system: BXPC3, SNU16, Hep3B 2.1-7 subcutaneous tumors
Experiment: tumor suppression in nude mice with subcutaneously transplanted tumors
Assay type: in vivo
Conditions: BXPC3, SNU16, Hep3B 2.1-7 transplants, within 3-4 weeks
Source text: These preferred compounds (e.g., IIIb-08, IIIb-09, IIIb-45, IIIb-50, IIIb-55, IIIb-56, IIIb-57, IIIb-58, IIIb-60, IIIb-61, IIIb-65) are currently being used to […] in nude mice subcutaneously transplanted with pancreatic cancer cell line (BXPC3), gastric cancer cell line (SNU16), liver cancer cell line (Hep3B 2.1-7) and other tumor suppressive effects have been observed in vivo, the tumor suppression rate of subcutaneous tumors in nude mice could reach 80-110% within 3-4 weeks. […] Therefore, the preferred compounds “IIIb-08, IIIb-09, IIIb-45, IIIb-50, IIIb-55, IIIb-56, IIIb-57, IIIb-58, IIIb-60, IIIb-61, IIIb-65” designed and synthesized by the present invention not only have better inhibitory activity, but also have better safety and drug-forming properties, which are valuable for further preclinical studies such as pharmacotoxicology and clinical trials.

| SMILES | tumor suppression rate of subcutaneous tumors |
| --- | --- |
| NC(=O)c1cc2c(Oc3c(F)cc(NC(=O)NC4CC4)c(Cl)c3F)ccnc2cc1OCCO [IIIb-60] | 80-110% |
| NC(=O)c1cc2c(Oc3c(F)cc(NC(=O)NC4CC4)c(Cl)c3F)ccnc2cc1OCCF [IIIb-55] | 80-110% |

Target: RET (Homo sapiens (Human), UniProt P07949)
Experiment: kinase inhibition, Mobility-Shift Assay
Assay type: biochemical
Conditions: 23 μM ATP

| SMILES | IC50 [µM] |
| --- | --- |
| NC(=O)c1cc2c(Oc3c(F)cc(NC(=O)NC4CC4)c(Cl)c3F)ccnc2cc1OCCO [IIIb-60] | < 0.005 |
| NC(=O)c1cc2c(Oc3c(F)cc(NC(=O)NC4CC4)c(Cl)c3F)ccnc2cc1OCCF [IIIb-55] | 0.005 to 0.01 |

Target: VEGFR3 (FLT4) (Homo sapiens (Human), UniProt P35916)
Sequence (P35916 25-1363): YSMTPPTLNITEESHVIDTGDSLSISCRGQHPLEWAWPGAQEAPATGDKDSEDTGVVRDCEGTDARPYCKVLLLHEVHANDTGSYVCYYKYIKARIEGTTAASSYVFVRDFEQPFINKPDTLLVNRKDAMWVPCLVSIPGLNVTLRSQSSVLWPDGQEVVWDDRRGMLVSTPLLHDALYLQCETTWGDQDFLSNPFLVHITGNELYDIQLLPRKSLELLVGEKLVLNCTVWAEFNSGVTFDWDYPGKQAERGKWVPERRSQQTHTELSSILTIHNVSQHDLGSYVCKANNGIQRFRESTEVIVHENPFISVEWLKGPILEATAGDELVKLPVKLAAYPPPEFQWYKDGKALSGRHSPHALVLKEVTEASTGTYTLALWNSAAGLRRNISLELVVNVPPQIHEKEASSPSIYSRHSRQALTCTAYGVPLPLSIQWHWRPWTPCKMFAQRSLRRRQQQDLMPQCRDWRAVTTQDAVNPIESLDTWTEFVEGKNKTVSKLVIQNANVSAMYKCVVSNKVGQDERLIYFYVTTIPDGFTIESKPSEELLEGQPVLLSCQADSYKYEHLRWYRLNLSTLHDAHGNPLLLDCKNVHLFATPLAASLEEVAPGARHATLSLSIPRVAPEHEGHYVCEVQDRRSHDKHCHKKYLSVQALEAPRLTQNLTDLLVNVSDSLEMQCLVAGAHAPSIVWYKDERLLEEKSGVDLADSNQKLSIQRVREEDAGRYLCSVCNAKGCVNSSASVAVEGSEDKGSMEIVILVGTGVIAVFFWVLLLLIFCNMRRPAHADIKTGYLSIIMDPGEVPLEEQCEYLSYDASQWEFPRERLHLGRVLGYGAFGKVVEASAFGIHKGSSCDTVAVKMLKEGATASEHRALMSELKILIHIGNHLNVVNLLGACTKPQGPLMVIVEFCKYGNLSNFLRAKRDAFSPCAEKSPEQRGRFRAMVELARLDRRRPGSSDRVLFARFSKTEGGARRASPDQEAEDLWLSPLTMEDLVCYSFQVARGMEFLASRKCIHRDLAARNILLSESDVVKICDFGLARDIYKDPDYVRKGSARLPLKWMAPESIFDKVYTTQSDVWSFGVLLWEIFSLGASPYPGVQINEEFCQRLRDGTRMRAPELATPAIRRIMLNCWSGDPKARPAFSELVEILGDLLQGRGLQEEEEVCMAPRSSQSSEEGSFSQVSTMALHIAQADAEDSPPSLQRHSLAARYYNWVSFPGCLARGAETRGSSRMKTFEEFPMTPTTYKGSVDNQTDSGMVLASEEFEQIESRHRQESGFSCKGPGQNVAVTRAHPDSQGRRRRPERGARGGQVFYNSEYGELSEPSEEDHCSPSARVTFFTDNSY
Experiment: kinase inhibition, Mobility-Shift Assay
Assay type: biochemical
Conditions: 84 μM ATP

| SMILES | IC50 [µM] |
| --- | --- |
| COc1cc2nccc(Oc3ccc(NC(=O)NC4CC4)c(Cl)c3)c2cc1C(N)=O [Lenvatinib, lenvatinib, reference compound] | < 0.005 |
| NC(=O)c1cc2c(Oc3c(F)cc(NC(=O)NC4CC4)c(Cl)c3F)ccnc2cc1OCCO [IIIb-60] | < 0.005 |
| NC(=O)c1cc2c(Oc3c(F)cc(NC(=O)NC4CC4)c(Cl)c3F)ccnc2cc1OCCF [IIIb-55] | < 0.005 |
